Results as given in patent publication US20060073496A1, “Methods of identifying patients at risk of developing encephalitis following immunotherapy for Alzheimer's disease” (priority 2004, published 2006).
Values joined by “and” are separate entries in the source; they are usually repeats but may differ in a detail not shown here. Equal entries are not always repeated. “Also recorded” adds a separate entry of the source.

Assays:
AN1792 = test: Postimmunization maximum anti-AN1792 IgG and IgM titer / response group of treated patients; assay type: in vivo, human
Text: Relevant clinical data received from StatProbe, Inc. (Ann Arbor, Mich.) (pertaining to treatment group, maximum IgG titer for all visits, maximum IgM titer for all visits, ApoE4 type, and encephalitis status), along with demographic data and treatment group, were merged with the gene expression data by donor identification number (the randomization number that was assigned to each patient in the study).
The pharmacogenomic supplemental statistical analysis plan of this Example 1 defines IgG responders as having a maximum titer≧2200 at any time point. The maximum titer of partial IgG responders was >200<2200, and of nonresponders was ≦200. Patients with an IgM titer>100 at any time point are defined as IgM responders.
(Data from patients with maximum titers between 200 and 2200 were not used in the identification of statistically significant associations, but were analyzed once the statistical programs had identified genes of interest.)
Relevant clinical data pertaining to treatment group, maximum IgG titer for all visits, maximum IgM titer for all visits, encephalitis status, and demographic data were received from StatProbe, Inc. (Ann Arbor, Mich.). The clinical data were merged with the gene expression data by donor identification number.
Subjects were assigned to response groups based on postimmunization maximum titer during follow-up. For both IgM and IgG the response groups were: 1) nonresponders, (titer<200); 2) partial responders (200≦titer<2,200); and 3) responders (titer≧2200).

[1] = cited from earlier work
[2] = tested on: transgenic mouse models of cognitive impairment and amyloid plaque-associated CNS pathology; details: cited from earlier work
PDAPP transgenic mouse = PDAPP transgenic mouse efficacy studies (titer needed to lessen neuropathological progression); assay type: in vivo
Text: At present, the anti-AN1792 titer necessary to achieve a beneficial therapeutic effect in human AD is unknown. Whereas the PDAPP (platelet-derived growth factor-driven amyloid precursor protein) transgenic mouse develops several AD-like neuropathologies, the progression of pathology in this model may very well take a more aggressive course than in human AD, as the changes occur in months and the expression levels APP/Aβ are several fold higher than in nontransgenic species.

[3] = cited from earlier work; remark: listed apart in the source
PBMCs = test: Gene expression frequency (Affymetrix U133A) in PBMCs cultured overnight with AN1792 and immune adjuvant cocktail; association with encephalitis, IgG, IgM response, ApoE4 by ANOVA and GeneCluster; ratio to control culture; assay type: cell-based, human; details: 13 genes of Table 17, PBMCs cultured overnight, AN1792 10 μg/ml
Text: Consent to the pharmacogenomic study was optional and obtained after approval by local institutional review boards in the U.S. (E.U. patients were not included in the pharmacogenomic study). Blood was collected from patients in the U.S. at the screening visit and was shipped overnight at room temperature to the Pharmacogenomic Laboratory in Andover, Mass. For each sample, the peripheral blood mononuclear cell (PBMC) fraction was purified by CPT fractionation, as described below, and 2×10^6 of these cells (the baseline sample, i.e., the first daughter sample for baseline measurements) were snap frozen; these represent cells that were not subject to in vitro culture (see. Example 1.1.3.1). The remaining cells were divided into four equal aliquots and cultured in vitro overnight in conditions described below. Cells were then harvested and snap frozen. […] The hypothesis behind this reasoning was that immunotherapeutic responsiveness may reflect a state of “preexisting readiness” to respond to AN1792, and this state may be reflected in the gene expression profile of PBMCs prior to immunotherapy. Accordingly, both AN1792-stimulated and control cultures were set up for each sample. Total RNA was purified from each sample, and RNA expression levels of each of 22,000 sequences were assayed, as described below. […]

[4] = Phase IIa placebo-controlled trial of AN1792 with QS-21 adjuvant: meningoencephalitis and follow-up; assay type: in vivo, human; details: for Meningoencephalitis patients: number of samples in pharmacogenomic study
Text: The U.K. trial enrolled about 80 patients and the U.S. trial enrolled about 24 patients with mild to moderate AD for the Phase I trials.
Antibody responders were compared to placebo controls. […] Whole-trial analysis remains ongoing (Gilman, supra).
A total of 372 patients, 172 from the U.S. and 200 from the E.U., were enrolled in the clinical trial. […] Consent was obtained after approval by local institutional review boards.

[5] = Phase I human trials of AN1792 (safety, tolerability, antibody responsiveness); assay type: in vivo; details: Phase I study
Text: The U.K. trial enrolled about 80 patients and the U.S. trial enrolled about 24 patients with mild to moderate AD for the Phase I trials. […] Four of the participants developed signs of meningoencephalitis at an early phase of the clinical trial, and the trial was suspended. […] At the time the treatments were discontinued, the maximum number of immunization received was three (by 24 patients), with the majority of patients receiving two immunizations (274 patients) and two patients receiving one immunization. Ultimately, meningoencephalitis was reported in 18 of 300 immunized patients (Orgogozo (2003) supra).
Predictors of response were sought because the incidence of antibody responsiveness in the Phase I study was relatively low (48%), an incidence that would have more than doubled the number of patients required in a Phase II evaluation of efficacy (as measured by cognitive function) associated with anti-AN1792 antibody response. […] Consequently, blood samples were obtained from 123 treated U.S. patients (five of which developed meningoencephalitis) and 30 patients in the placebo group. Simultaneous analysis of the expression levels of approximately 22,000 sequences in each preimmune blood sample obtained from all consenting subjects was performed using the Affymetrix U133A GeneChip®. […]

[6] = rabbit, single IM injection, tritium-labeled QS-21; cited from earlier work
[7] = tested on: B and T cell effector function; details: QS-21 adjuvanted immunotherapeutics in mice, rabbits and monkeys; cited from earlier work
[8] = cited from earlier work; remark: listed apart in the source
[9] = individual AN1792-treated patients with r^2 outlier samples (33, 22, 316, 765)
[10] = individual treated patients with post-CPT neutrophils >20%, one line per patient (17, 23, 36, 44, 271, 756), listed as Immunotherapy
[11] = number of samples in pharmacogenomic study, Female, of 57 treated
[12] = number of samples in pharmacogenomic study, Male, of 66 treated
[13] = number of samples in pharmacogenomic study, Total, of 123 treated
[14] = immunization with AN1792, transgenic mice

## AN1792: a peptide immunogen consisting of Aβ1-42, the section of amyloid recognized as a major component of AD-related plaques
AN1792; [9]
  IgG response group: Nonresponder (of nonresponders was ≦200); also recorded: IgG responder (IgG responders as having a maximum titer≧2200 at any time point)
  IgM response group: IgM responder (maximum IgM titer>100 (responders)); also recorded: Nonresponder (maximum IgM titer<100 (nonresponders))
AN1792; [10]
  Maximum IgG Titer: 50 (3×) and 4111 and 126 and 172
  Maximum IgM Titer: 13275 and 957 and 28554
AN1792; [11]
  Treated IgG nonresponders: 28
  Treated IgG partial responders: 16
  Treated IgG responders: 13
  Treated IgM nonresponders: 16
  Treated IgM partial responders: 21
AN1792; [12]
  Treated IgG nonresponders: 42
  Treated IgG partial responders: 12
  Treated IgG responders: 12
  Treated IgM nonresponders: 28
  Treated IgM partial responders: 18
AN1792; [13]
  Treated IgG nonresponders: 70
  Treated IgG partial responders: 28
  Treated IgM nonresponders: 44
  Treated IgM partial responders: 39
  Treated IgM responders: 40
AN1792; treated U.S. patients of the pharmacogenomic study, Example 2
  incidence of responsiveness (IgG titer>200), patients of treated patients: 53 of 123
[1]; Phase I trials, mild to moderate AD
  development of amyloid antibodies: a portion of the participants developed amyloid antibodies
[1]; in vivo
  tolerability in human recipients: well tolerated
[2]; [14]
  cognitive function: improved cognitive function
  development of AD-like amyloid plaques, neuritic dystrophy, and gliosis: inhibited the development of AD-like amyloid plaques, neuritic dystrophy, and gliosis
[2]; mice treated with AN1792 versus placebo
  performance in memory tests: improved performance in memory tests
PDAPP transgenic mouse
  lowest titers that resulted in lessening of neuropathological progression: 1-2,000
[3]; antibody responders compared to placebo controls, follow-up
  CSF tau levels and battery of neuropsychological tests: gave results favoring patients with a positive IgG titer
[3]; in vivo
  meningoencephalitis reported, patients of immunized patients: 18 of 300
[3]; one participant who died of causes unrelated to treatment
  β-amyloid plaques in brain at autopsy: significant areas of the brain lacked the β-amyloid plaques
PBMCs
  effect of AN1792 stimulation on gene expression frequency (AN1792-stimulated versus control culture): decrease in gene expression frequency
[4]; E.U. patients
  number of patients who developed meningoencephalitis: 12
[4]; U.S. patients
  number of patients who developed meningoencephalitis: 6
[4]; Female
  Meningoencephalitis patients: 5
[4]; Total
  Meningoencephalitis patients: 5
[5]
  incidence of antibody responsiveness: 48%

## QS-21
[6]
  distribution: highly concentrated in the lymph nodes draining the injection area
  excretion: Excretion occurs primarily through the kidneys
[7]
  effect on immune effector function: improvement in B and T cell effector function
[8]; rabbit toxicity studies
  white blood cell counts and creatinine kinase: Slight alterations in white blood cell counts (leukocytosis and leukopenia) and creatinine kinase
[8]; rabbit, single or multiple injections, QS-21 alone or combined with antigens
  organ toxicity: no significant organ toxicity
